Source: ChEMBL document CHEMBL4014306, “Pyrazolopyrimidines as Potent Stimulators for Transient Receptor Potential Canonical 3/6/7 Channels” (J Med Chem, 2017)
Calls of active or inactive are those of the source.

Tests used:
Format in all cases: cell-based
[1] = target: T1, Short transient receptor potential channel 5 (Homo sapiens) (UniProt Q9UL62); assay: Agonist activity at human TRPC5 expressed in HEK293 cells assessed as induction of membrane depolarization at 33 uM measured for 2.5 mins by FLIPR membrane potential dye-based fluorescence assay
T1 sequence (whole entry): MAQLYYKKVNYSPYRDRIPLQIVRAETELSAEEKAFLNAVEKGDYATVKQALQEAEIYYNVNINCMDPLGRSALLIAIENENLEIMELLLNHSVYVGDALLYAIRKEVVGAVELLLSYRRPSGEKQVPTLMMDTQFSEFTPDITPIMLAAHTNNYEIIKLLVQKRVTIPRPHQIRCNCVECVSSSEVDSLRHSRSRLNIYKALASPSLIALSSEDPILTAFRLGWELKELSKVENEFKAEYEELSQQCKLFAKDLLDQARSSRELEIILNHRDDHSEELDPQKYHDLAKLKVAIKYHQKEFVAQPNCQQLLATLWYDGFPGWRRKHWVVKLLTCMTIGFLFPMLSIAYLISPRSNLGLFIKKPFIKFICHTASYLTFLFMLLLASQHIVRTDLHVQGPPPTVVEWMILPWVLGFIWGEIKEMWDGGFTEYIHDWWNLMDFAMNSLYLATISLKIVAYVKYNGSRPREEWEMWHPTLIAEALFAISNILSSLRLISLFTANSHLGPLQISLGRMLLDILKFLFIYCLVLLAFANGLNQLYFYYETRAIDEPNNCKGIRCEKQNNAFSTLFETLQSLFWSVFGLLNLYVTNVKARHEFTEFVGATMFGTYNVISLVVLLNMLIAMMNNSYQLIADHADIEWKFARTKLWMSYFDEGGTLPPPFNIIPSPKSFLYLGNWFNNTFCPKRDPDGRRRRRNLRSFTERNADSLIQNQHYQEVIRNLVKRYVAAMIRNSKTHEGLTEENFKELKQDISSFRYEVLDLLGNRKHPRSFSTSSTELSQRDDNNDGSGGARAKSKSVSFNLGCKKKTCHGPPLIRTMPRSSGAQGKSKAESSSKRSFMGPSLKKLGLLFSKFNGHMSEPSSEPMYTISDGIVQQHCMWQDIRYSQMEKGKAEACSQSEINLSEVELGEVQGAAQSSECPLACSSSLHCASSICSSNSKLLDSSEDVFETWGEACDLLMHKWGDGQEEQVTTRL

[2] = target: T2, Short transient receptor potential channel 4 (Mus musculus) (UniProt Q9QUQ5); assay: Agonist activity at mouse TRPC4beta expressed in HEK293 cells co-expressing MOR assessed as increase in intracellular calcium level at 33 uM measured for 2.5 mins by Fluo-8-AM dye-based fluorescence assay
T2 sequence (whole entry): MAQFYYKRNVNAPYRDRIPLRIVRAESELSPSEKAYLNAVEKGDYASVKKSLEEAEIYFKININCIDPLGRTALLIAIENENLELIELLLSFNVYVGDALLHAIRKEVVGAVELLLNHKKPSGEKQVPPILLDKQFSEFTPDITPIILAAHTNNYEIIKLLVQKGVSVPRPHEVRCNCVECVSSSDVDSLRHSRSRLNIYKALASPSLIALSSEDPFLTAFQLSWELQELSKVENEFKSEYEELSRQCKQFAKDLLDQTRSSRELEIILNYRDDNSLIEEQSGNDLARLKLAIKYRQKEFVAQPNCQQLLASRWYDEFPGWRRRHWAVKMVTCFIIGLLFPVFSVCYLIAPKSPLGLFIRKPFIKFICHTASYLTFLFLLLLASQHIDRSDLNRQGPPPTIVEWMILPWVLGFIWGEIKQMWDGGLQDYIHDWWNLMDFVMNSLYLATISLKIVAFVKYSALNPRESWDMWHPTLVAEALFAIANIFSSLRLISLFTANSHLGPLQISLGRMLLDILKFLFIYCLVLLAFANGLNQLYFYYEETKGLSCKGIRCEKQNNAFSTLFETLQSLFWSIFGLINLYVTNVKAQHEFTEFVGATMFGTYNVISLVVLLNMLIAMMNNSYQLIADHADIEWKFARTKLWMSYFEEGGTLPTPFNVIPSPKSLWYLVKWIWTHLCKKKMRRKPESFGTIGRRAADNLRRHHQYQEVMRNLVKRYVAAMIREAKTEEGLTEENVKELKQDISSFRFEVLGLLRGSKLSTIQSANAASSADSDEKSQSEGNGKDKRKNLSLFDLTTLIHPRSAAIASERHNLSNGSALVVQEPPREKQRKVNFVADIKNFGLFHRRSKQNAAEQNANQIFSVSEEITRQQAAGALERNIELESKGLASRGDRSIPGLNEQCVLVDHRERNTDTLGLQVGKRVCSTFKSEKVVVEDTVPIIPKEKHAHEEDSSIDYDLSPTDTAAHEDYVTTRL

[3] = target: Transient receptor potential cation channel subfamily A member 1 (Homo sapiens) (UniProt O75762); assay: Agonist activity at human TRPA1 expressed in HEK293 cells assessed as increase in intracellular calcium level at 33 uM measured for 2.5 mins by Fluo-8-AM dye based fluorescence assay
Chain of Transient receptor potential cation channel subfamily A member 1 (Homo sapiens) (O75762 whole entry): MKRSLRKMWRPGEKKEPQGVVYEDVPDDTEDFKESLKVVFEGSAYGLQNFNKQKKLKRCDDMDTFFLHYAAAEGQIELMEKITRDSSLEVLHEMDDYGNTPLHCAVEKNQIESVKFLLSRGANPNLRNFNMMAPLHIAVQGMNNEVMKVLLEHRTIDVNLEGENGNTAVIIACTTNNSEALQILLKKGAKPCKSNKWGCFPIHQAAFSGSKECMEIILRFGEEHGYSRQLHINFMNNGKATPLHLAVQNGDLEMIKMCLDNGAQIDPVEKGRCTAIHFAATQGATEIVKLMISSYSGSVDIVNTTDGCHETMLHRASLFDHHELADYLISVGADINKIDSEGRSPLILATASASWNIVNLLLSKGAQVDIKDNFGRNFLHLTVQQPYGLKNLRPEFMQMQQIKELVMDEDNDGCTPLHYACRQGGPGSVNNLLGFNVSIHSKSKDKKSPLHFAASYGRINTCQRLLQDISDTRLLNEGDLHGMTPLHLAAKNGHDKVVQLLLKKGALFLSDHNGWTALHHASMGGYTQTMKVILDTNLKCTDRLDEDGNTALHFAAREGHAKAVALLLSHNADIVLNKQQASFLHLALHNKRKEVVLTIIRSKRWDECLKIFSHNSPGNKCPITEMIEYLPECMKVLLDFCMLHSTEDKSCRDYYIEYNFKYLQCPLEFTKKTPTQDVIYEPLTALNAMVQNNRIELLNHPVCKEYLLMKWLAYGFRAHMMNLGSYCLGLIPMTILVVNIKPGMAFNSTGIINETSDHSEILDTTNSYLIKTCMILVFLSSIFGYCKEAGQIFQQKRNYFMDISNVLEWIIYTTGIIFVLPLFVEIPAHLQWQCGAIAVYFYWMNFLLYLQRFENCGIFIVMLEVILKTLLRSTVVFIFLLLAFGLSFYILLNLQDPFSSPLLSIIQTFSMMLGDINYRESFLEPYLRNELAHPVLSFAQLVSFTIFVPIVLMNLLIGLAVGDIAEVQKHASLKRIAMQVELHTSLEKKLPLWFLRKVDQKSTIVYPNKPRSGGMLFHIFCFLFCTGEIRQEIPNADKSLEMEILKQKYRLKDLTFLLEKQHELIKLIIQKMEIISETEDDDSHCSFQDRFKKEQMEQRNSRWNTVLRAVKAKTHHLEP

Measured: Activity

Cc1nn2c(O)cc(C3CCN(C(=O)OCc4ccccc4)CC3)nc2c1-c1ccc(F)cc1
inactive: all assays above

CCOC(=O)N1CCC(c2cc(O)n3nc(C)c(-c4ccc(C(F)(F)F)cc4)c3n2)CC1
inactive: all assays above

CCOC(=O)N1CCC(c2cc(O)n3nc(C)c(-c4ccc(F)cc4)c3n2)CC1
inactive: all assays above

Cc1nn2c(O)cc(C3CCN(C(=O)OCc4ccccc4)CC3)nc2c1-c1ccc(Cl)cc1
inactive: all assays above
